# pIC50: −log10 of the molar value. *1 amine or outer side, *2 acyl side, *3 side chain or, on linkers, in order; H or OH if unused. Where a SMILES comes first, the peptide text is derived from it. The star is where a group is joined. Cbz = O=C(OCc1ccccc1)*; CO = O=C([*:1])[*:2]
# Molecular target: Coagulation factor XI (Homo sapiens, UniProt P03951)
# Assay: FXIa inhibitor IC50 values, dose response, biochemical, hits from 1536-well screen (AID 846)
# Details: pH 7.4; 23 °C
# Chain of Coagulation factor XI (P03951 19-387 limits assumed): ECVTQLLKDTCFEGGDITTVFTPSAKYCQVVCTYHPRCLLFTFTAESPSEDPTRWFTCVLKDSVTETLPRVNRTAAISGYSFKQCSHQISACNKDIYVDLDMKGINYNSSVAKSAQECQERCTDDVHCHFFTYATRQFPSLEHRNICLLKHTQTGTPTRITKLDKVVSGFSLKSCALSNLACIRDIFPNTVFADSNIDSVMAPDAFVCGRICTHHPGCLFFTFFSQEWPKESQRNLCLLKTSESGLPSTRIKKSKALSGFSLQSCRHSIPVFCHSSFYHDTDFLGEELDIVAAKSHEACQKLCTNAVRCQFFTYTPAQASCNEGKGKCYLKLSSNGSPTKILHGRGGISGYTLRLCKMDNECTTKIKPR
# Chain of Coagulation factor XI (P03951 388-625 limits assumed): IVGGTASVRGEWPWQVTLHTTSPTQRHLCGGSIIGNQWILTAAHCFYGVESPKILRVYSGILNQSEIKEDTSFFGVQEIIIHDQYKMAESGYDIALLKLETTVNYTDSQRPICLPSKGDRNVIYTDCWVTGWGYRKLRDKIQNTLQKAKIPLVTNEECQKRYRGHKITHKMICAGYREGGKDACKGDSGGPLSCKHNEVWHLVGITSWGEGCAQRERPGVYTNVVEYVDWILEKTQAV
row,SMILES,pIC50
1,Cc1nnc(SCCn2c(Br)nc3c2c(=O)[nH]c(=O)n3C)s1,< 4.30
2,[O-][S+](NC1CCCCC1)C12CC3CC(CC(C3)C1)C2 (stereo not given),< 4.30
3,O=C(Oc1cncc(Cl)c1)c1ccco1,6.13
4,Cc1cccc(NC(=O)c2cc(-n3c(O)ccc3O)ccc2Cl)n1,< 4.30
5,CCc1cccc(NC(=O)Cc2ccc([N+](=O)[O-])cc2)c1,< 4.30
6,COc1ccc([N+](=O)[O-])cc1NC(=O)CC1S/C(=N\c2cccc(C)c2C)N(N=Cc2cccc(OC)c2OC)C1=O (stereo not given),< 4.30
7,Cc1nc2ccccc2c(=O)n1NC(=O)c1cc(Br)ccc1Cl,< 4.30
8,COc1cccc(C(=O)OCCN2CCOCC2)c1,< 4.30
9,COc1ccc(C(=O)NN=Cc2cc3ccccc3[nH]c2=O)cc1,< 4.30
10,C=C(C)CNC(=S)Nc1cccc(N)n1,< 4.30
11,CCNc1cc(N2CCNCC2)ccc1[N+](=O)[O-],< 4.30
12,O=C(NCc1ccccc1)c1ccc(Cl)nc1,< 4.30
13,CCc1ccccc1-n1c(O)cc(=O)[nH]c1=O,< 4.30
14,O=C(CSc1ncccn1)NN=Cc1cccc(OC2CSC2)c1,< 4.30
15,COc1ccc(-c2n[nH]cc2C2N=C(N)Nc3nc4ccccc4n32)cc1 (stereo not given),< 4.30
16,O=C(NN=C1CCCC1)c1ccccc1OCc1ccc(Cl)cc1,< 4.30
17,O=C(NNC1=NCCCCC1)Nc1cccc(Cl)c1,< 4.30
18,CCOC(=O)C(=O)N(Nc1ccc(C)cc1)c1ccc(C)cc1,< 4.30
19,CCOc1ccc(-c2c(C)[n+](-c3ccc(OCC)cc3)c3n2CCCCC3)cc1,6.02
20,CC(C)(C)C(=O)CSc1ncnc2c1cnn2-c1ccccc1,< 4.30
21,Cc1ccc(C(=O)C(=O)c2ccc(C)c(N)c2)cc1N,< 4.30
22,NS(=O)(=O)c1ccc(Cl)cc1[N+](=O)[O-],< 4.30

row,SMILES,pIC50
1,Oc1cc(Sc2ccc(Cl)cc2)c(O)n1-c1ccc2c(c1)OCCO2,< 4.30
2,CC(C=NNC(=O)c1cc(-c2cccn2C)n[nH]1)=Cc1ccccc1,< 4.30
3,Cc1cc(C(=O)Cn2nc(C(=O)O)c3ccccc3c2=O)c(C)n1-c1cccc(C(F)(F)F)c1,< 4.30
4,COc1cc(CN=Nc2cc(C)nc(NS(=O)(=O)c3ccccc3)n2)ccc1O,< 4.30
5,CCc1ccc[n+](-c2[n-]c(=O)sc2C=NNC(N)=O)c1,< 4.30
6,COc1ccc(S(=O)(=O)NCc2c(-c3ccccc3)noc2C)c(OC)c1,< 4.30
7,CC(=O)c1ccc(NC(S)=Nc2cccc3cnccc23)cc1 [1-(4-acetylphenyl)-3-(5-isoquinolinyl)thiourea],< 4.30
8,"O=C(Nc1ccc(Cl)cc1)Nc1nc(-c2ccccc2O)cs1 [1-(4-chlorophenyl)-3-[4-(2-hydroxyphenyl)-1,3-thiazol-2-yl]urea]",< 4.30
9,"Cc1ccc(C(=O)n2nc(-c3cccnc3)nc2N)cc1 [1-(4-methylbenzoyl)-3-(3-pyridinyl)-1H-1,2,4-triazol-5-amine]",< 4.30
10,"CCn1c(C)nc2cc(C(=O)NN=C(C)c3ccc(OC)cc3O)ccc21 [1-ethyl-N'-[(1E)-1-(4-methoxy-6-oxidanylidene-cyclohexa-2,4-dien-1-ylidene)ethyl]-2-methyl-benzimidazole-5-carbohydrazide]",< 4.30
11,"N#CCCC1CCCC=C1N(Cc1ccccc1)C(=O)C(Cl)Cl (stereo not given) [2,2-bis(chloranyl)-N-[6-(2-cyanoethyl)cyclohexen-1-yl]-N-(phenylmethyl)ethanamide]",< 4.30
12,"Cc1ccc(C)c(S(=O)(=O)ON2C(=O)c3ccccc3C2=O)c1 [2,5-dimethylbenzenesulfonic acid (1,3-dioxo-2-isoindolyl) ester]",6.12
13,O=C(Cn1c(-c2ccccn2)nc2ccccc21)NN=Cc1cccnc1 [2-(2-pyridin-2-ylbenzimidazol-1-yl)-N-(pyridin-3-ylmethylideneamino)acetamide],< 4.30
14,CCn1nc(CC(=O)O)c2ccccc2c1=O [2-(3-ethyl-4-oxidanylidene-phthalazin-1-yl)ethanoic acid],< 4.30
15,"Cc1sc2c(c1C)C(=O)NC(c1cccc(O)c1)N2 (stereo not given) [2-(3-hydroxyphenyl)-5,6-dimethyl-2,3-dihydrothieno[2,3-d]pyrimidin-4(1H)-one]",< 4.30
16,"CCN1CCN(CC(=O)Nc2cc(C)on2)CC1 [2-(4-ethylpiperazin-1-yl)-N-(5-methyl-1,2-oxazol-3-yl)acetamide;oxalic acid]",< 4.30
17,CN(Cc1ccon1)C(=O)CC1C(=O)NCCN1CC1CCCCC1 (stereo not given) [2-[1-(cyclohexylmethyl)-3-oxopiperazin-2-yl]-N-(isoxazol-3-ylmethyl)-N-methylacetamide],< 4.30
18,CCOc1cc(CO)ccc1OCC(=O)N1CCCCC1 [2-[2-ethoxy-4-(hydroxymethyl)phenoxy]-1-(1-piperidinyl)ethanone],< 4.30
19,"CCOc1ccc(NC(=O)CN2C(=O)/C(=C3\SC(=S)N(C4CCS(=O)(=O)C4)C3=O)c3ccccc32)cc1 (stereo not given) [2-[(3Z)-3-[3-[1,1-bis(oxidanylidene)thiolan-3-yl]-4-oxidanylidene-2-sulfanylidene-1,3-thiazolidin-5-ylidene]-2-oxidanylidene-indol-1-yl]-N-(4-ethoxyphenyl)ethanamide;ethanoic acid]",< 4.30
20,O=C(Nc1ccc(Cl)cc1)Nc1ccccc1C(=O)NCc1ccco1 [2-[(4-chlorophenyl)carbamoylamino]-N-(furan-2-ylmethyl)benzamide],< 4.30
21,"COc1ccc(CSc2nc(C)cc(C)c2S(C)(=O)=O)cc1 [2-[(4-methoxybenzyl)sulfanyl]-4,6-dimethyl-3-pyridinyl methyl sulfone]",< 4.30
22,"CC(C)NC(=O)CSc1nc(-c2ccccc2)cs1 [2-[(4-phenyl-1,3-thiazol-2-yl)sulfanyl]-N-propan-2-yl-ethanamide]",< 4.30

row,SMILES,pIC50
1,CCOC(=O)COc1cc(O)c2c(=O)cc(-c3ccccc3)oc2c1 [2-[(5-hydroxy-4-oxo-2-phenyl-1-benzopyran-7-yl)oxy]acetic acid ethyl ester],< 4.30
2,CC(C)[C@H](NC(=O)[C@H](CCCNC(=N)N)NC(=O)N[C@@H](Cc1ccccc1)C(=O)O)C(=O)N[C@H](C=O)CCCNC(=N)N [2-[[[[(2S)-5-(diaminomethylideneamino)-1-[[(2S)-1-[[5-(diaminomethylideneamino)-1-oxopentan-2-yl]amino]-3-methyl-1-oxobutan-2-yl]amino]-1-oxopentan-2-yl]amino]-oxomethyl]amino]-3-phenylpropanoic acid] ({Phe-CO}-Arg-Val-Arg-aldehyde),5.42
3,N#Cc1ccsc1NC(=O)CN(Cc1ccccc1)Cc1ccccc1 [2-[bis(phenylmethyl)amino]-N-(3-cyano-2-thiophenyl)acetamide],< 4.30
4,CS(=O)(=O)c1ccc(Cl)c(NC(=O)COC(=O)CNC(=O)c2ccccc2)c1 [2-benzamidoacetic acid [2-(2-chloro-5-methylsulfonylanilino)-2-oxoethyl] ester],< 4.30
5,"O=C(c1cccn2c(=O)c3cc(Br)ccc3nc12)N1CCC2(CC1)OCCO2 [2-bromanyl-6-(1,4-dioxa-8-azaspiro[4.5]decan-8-ylcarbonyl)pyrido[2,1-b]quinazolin-11-one]",< 4.30
6,CC(Cc1ccccc1)=NNC(=O)CNC(=O)c1ccccc1Cl [2-chloro-N-[2-oxo-2-[2-(1-phenylpropan-2-ylidene)hydrazinyl]ethyl]benzamide],< 4.30
7,"CC1=C(C(=O)OCCOc2ccccc2)C(c2ccsc2)NC(=O)N1C (stereo not given) [2-phenoxyethyl 3,4-dimethyl-2-oxo-6-thiophen-3-yl-1,6-dihydropyrimidine-5-carboxylate]",< 4.30
8,O=C(Oc1ccc2ccc(=O)oc2c1)c1cccs1 [2-thiophenecarboxylic acid (2-oxo-1-benzopyran-7-yl) ester],5.57
9,"Cc1cc(C)c(C)c(S(=O)(=O)ON2C(=O)c3ccccc3C2=O)c1C [2-{[(2,3,5,6-tetramethylphenyl)sulfonyl]oxy}-1H-isoindole-1,3(2H)-dione]",5.50
10,"Cc1n[nH]c(C)c1CCC(=O)NN=Cc1c[nH]c2ccccc12 [3-(3,5-Dimethyl-1H-pyrazol-4-yl)-propionic acid [1-(1H-indol-3-yl)-meth-(E)-ylidene]-hydrazide]",< 4.30
11,S=C(NCCc1ccccc1)Nc1ccc(Br)cn1 [3-(5-bromopyridin-2-yl)-1-(2-phenylethyl)thiourea],< 4.30
12,"Oc1cc(N2CCC(c3nc4ccccc4o3)CC2)c(O)n1-c1ccc(Cl)c(C(F)(F)F)c1 [3-[4-(1,3-benzoxazol-2-yl)piperidin-1-yl]-1-[4-chloranyl-3-(trifluoromethyl)phenyl]pyrrolidine-2,5-dione]",< 4.30
13,"Clc1ccccc1Cn1nnc2c(NCCN3CCOCC3)ncnc21 [3-[(2-chlorophenyl)methyl]-N-(2-morpholin-4-ylethyl)triazolo[4,5-d]pyrimidin-7-amine]",< 4.30
14,Nn1c(C2CCCCC2)nc2ccccc2c1=O [3-azanyl-2-cyclohexyl-quinazolin-4-one],< 4.30
15,CC(C)C(NC(=O)C(Cc1ccccc1)NC(=O)OCc1ccccc1)C(=O)O (stereo not drawn) [3-methyl-2-[[1-oxo-3-phenyl-2-(phenylmethoxycarbonylamino)propyl]amino]butanoic acid] (Cbz-Phe-Val-OH; configuration not given here),< 4.30
16,"CN(Cc1ccccc1)c1nc2c(c(=O)[nH]c(=O)n2C)n1CCCSc1ncccn1 [3-methyl-8-[methyl-(phenylmethyl)amino]-7-(3-pyrimidin-2-ylsulfanylpropyl)purine-2,6-dione]",< 4.30
17,"Oc1ccc(C=NN2CCN(C3c4ccccc4-c4ccccc43)CC2)c(O)c1 [4-({[4-(9H-fluoren-9-yl)-1-piperazinyl]imino}methyl)-1,3-benzenediol]",< 4.30
18,O=C(O)c1ccc(N=C(NS(=O)(=O)c2ccc(Cl)cc2)c2ccccc2)cc1 [4-({[(E)-4-Chloro-benzenesulfonylimino]-phenyl-methyl}-amino)-benzoic acid],< 4.30
19,"CCc1cc(-c2n[nH]cc2-c2nc3ccccc3n2C)c(O)cc1O [4-Ethyl-6-[4-(1-methyl-1H-benzoimidazol-2-yl)-1H-pyrazol-3-yl]-benzene-1,3-diol]",< 4.30
20,Clc1ccc(-c2csc(N3CCOCC3)n2)cc1 [4-[4-(4-chlorophenyl)-2-thiazolyl]morpholine],< 4.30
21,O=C(O)c1ccc(/C=C2\SC(=S)N(Nc3ccccc3)C2=O)cc1 [4-[4-Oxo-3-phenylamino-2-thioxo-thiazolidin-(5Z)-ylidenemethyl]-benzoic acid],< 4.30

# From BindingDB's records for doi:10.7270/Q2H993J6 (Pcmd, 2008)
